US4016159A, “Acylamino-cephem-carboxylic acids containing an amidino or guanidino group in the molecule” (Hoechst Aktiengesellschaft, priority 1973, dated 1977)
Values after ≈ are worked out from the molar mass of the structure shown. Where two headings read alike, the source gives them in different places.

Key:
Assay type in all cases: cell-based
[1] = system: Staphylococcus aureus 285; assay: Minimum inhibition concentration (MIC), Table 1; conditions: for Minimum inhibition concentration (MIC): Germ: Staphylococcus aureus 285
Excerpt: (§1) Minimum inhibition concentration (MIC) in γ/ml
Germ: Staphylococcus aureus 285

Streptococcus pyogenes A = assay: Minimum inhibition concentration (MIC), Table 3; conditions: Germ: Streptococcus pyogenes A; for MIC: read-out: Minimum inhibition concentration MIC
Excerpt: Minimum inhibition concentration MIC in γ/ml
Germ: Streptococcus pyogenes A

Streptococcus D = assay: Minimum inhibition concentration (MIC), Table 4; conditions: Germ: Streptococcus D; for MIC: Streptococcus, read-out: Minimum inhibition concentration (MIC)
Excerpt: as §1

[2] = Staphylococcus aureus, 285, Germ: Staphylococcus aureus 285, read-out: Minimum inhibition concentration (MIC)
[3] = Staphylococcus aureus, 285, read-out: Minimum inhibition concentration (MIC)

Row | SMILES | MIC [1, 2] [µg/mL] | MIC (Streptococcus pyogenes A) [ng/mL] | MIC (Streptococcus D) [µg/mL] | also measured
1 | CCc1nnc(SCC2=C(C(=O)O)N3C(=O)C(NC(=O)Cc4ccc(C5=NCCCN5)cc4)C3SC2)n1N (stereo not shown) [Example 104, 3-[(4-amino-5-ethyl-1,2,4-triazole-3-yl)-thiomethyl]-7-[4-(1,4,5,6-tetrahydropyrimide-2-yl)-phenylacetamido-] -Δ3-cephem-4-carboxylic acid] | 1.6 to 2.5 (≈ 2.87 to 4.49 µM) | – | – | –
2 | CCCCc1nnc(SCC2=C(C(=O)O)N3C(=O)C(NC(=O)COc4ccc(C(=N)N)cc4)C3SC2)s1 (stereo not shown) [Example 67, 3-[(5-n-butyl-1,3,4-thiadiazole-2-yl)-thiomethyl]-7-(4-amidinophenoxyacetamido)-Δ 3-cephem-4-carboxylic acid] | 0.5 to 1.25 (≈ 0.889 to 2.22 µM) | – | – | –
3 | N=C(N)c1ccc(CC(=O)NC2C(=O)N3C(C(=O)O)=C(CSC4=NCCS4)CSC23)cc1 (stereo not shown) [Example 90, 3-[2-thiazoline-2-yl-thiomethyl]-7-[4-amidino-phenylacetamido]-Δ 3-cephem-4-carboxylic acid] | 0.156 to 0.391 (≈ 0.317 to 0.795 µM) | 0.391 to 7.8 (≈ 0.000795 to 0.0159 µM) | – | –
4 | O=C(Cc1ccc(C2=NCCCN2)cc1)NC1C(=O)N2C(C(=O)O)=C(CSC3=NNC(c4ccccc4)=CS3)CSC12 (stereo not shown) [Example 99, 3-[(5-phenyl-4H-1,3,4-thiadiazine-2-yl)-thiomethyl]-7[4-(1,4,5,6-tetrahydropyrimide-2-yl)-phenylacetamido]-Δ3-cephem-4-carboxylic acid] | 0.5 to 1.25 (≈ 0.805 to 2.01 µM) | 8 to 15.6 (≈ 0.0129 to 0.0251 µM) | 10 to 50 (≈ 16.1 to 80.5 µM) | –
5 | CC1(C)S[C@@H]2[C@H](NC(=O)[C@H](N)c3ccccc3)C(=O)N2[C@H]1C(=O)O [Ampicillin, reference compound] | 100 (≈ 286 µM) | – | – | –
6 | COc1cc(C(=N)N)ccc1OCC(=O)NC1C(=O)N2C(C(=O)O)=C(CSc3nc(C)cs3)CSC12 (stereo not shown) [Example 130, 3-[(4-methyl-1,3-thiazole-2-yl)-thiomethyl]-7-(4-amidino-2-methoxy-phenoxyacetamido)-Δ3-cephem-4-carboxylic acid] | 0.156 to 0.391 (≈ 0.284 to 0.711 µM) | 8 to 15.6 (≈ 0.0146 to 0.0284 µM) | – | –
7 | CCc1nnc(SCC2=C(C(=O)O)N3C(=O)C(NC(=O)Cc4ccc(C5=NCCCN5)cc4)C3SC2)[nH]1 (stereo not shown) [Example 95, 3-[(5-ethyl-triazole-2-yl)-thiomethyl]-7-[4-(1,4,5,6-tetrahydro-pyrimide-2-yl)-phenylacetamido]-Δ3-cephem-4-carboxylic acid] | – | – | – | Minimum inhibition concentration (MIC) [1]: 1.6 to 2.5 µg/mL; Minimum inhibition concentration (MIC) (Streptococcus pyogenes A): 8 to 15.6 ng/mL; Minimum inhibition concentration (MIC) (Streptococcus D): 10 to 50 µg/mL
8 | N=C(N)c1ccc(CC(=O)NC2C(=O)N3C(C(=O)O)=C(CSc4nnc(N)s4)CSC23)cc1 (stereo not shown) [Example 59, 3-[(5-amino-1,3,4-thiadiazole-2-yl)-thiomethyl]-7-(4-amidinophenylacetamido)-Δ 3-cephem-4-carboxlic acid] | 0.5 to 1.25 (≈ 0.989 to 2.47 µM) | 0.391 to 7.8 (≈ 0.000773 to 0.0154 µM) | 10 to 50 (≈ 19.8 to 98.9 µM) | –
9 | Cc1nnc(SCC2=C(C(=O)O)N3C(=O)C(NC(=O)Cc4ccc(C(=N)N)cc4)C3SC2)s1 (stereo not shown) [Example 45, 3-[(5-methyl-1,3,4-thiadiazole-2-yl)-thiomethyl]-7-(4-amidinophenylacetamido)-Δ 3-cephem-4-carboxylic acid] | 0.156 to 0.391 (≈ 0.309 to 0.775 µM) | 0.391 to 7.8 (≈ 0.000775 to 0.0155 µM) | – | –
10 | CC1(C)S[C@@H]2[C@H](NC(=O)COc3ccccc3)C(=O)N2[C@H]1C(=O)O [Penicillin-V-K, reference compound] | – | – | – | MIC [1, 3]: 125 µg/mL (≈ 357 µM)
11 | Cc1cc(C)nc(SCC2=C(C(=O)O)N3C(=O)C(NC(=O)Cc4ccc(C5=NCCCN5)cc4)C3SC2)n1 (stereo not shown) [Example 98] | 0.5 to 1.25 (≈ 0.905 to 2.26 µM) | 0.391 to 7.8 (≈ 0.000707 to 0.0141 µM) | 10 to 50 (≈ 18.1 to 90.5 µM) | –
12 | CCCCc1nnc(SCC2=C(C(=O)O)N3C(=O)C(NC(=O)Cc4ccc(C5=NCCCN5)cc4)C3SC2)s1 (stereo not shown) [Example 77, 3-[(5-n-butyl-1,3,4-thiadiazole-2-yl)-thiomethyl]-7-[4-(1,4,5,6-tetrahydropyrimide-2-yl)-phenylacetamido]-Δ 3-cephem-4-carboxylic acid] | 0.5 to 1.25 (≈ 0.852 to 2.13 µM) | 8 to 15.6 (≈ 0.0136 to 0.0266 µM) | – | –
13 | N=C(N)c1ccc(OCC(=O)NC2C(=O)N3C(C(=O)O)=C(CSc4nnc(-c5ccccc5)o4)CSC23)cc1 (stereo not shown) [Example 48, 3-[(5-phenyl-1,3,4-oxadiazole-2-yl)-thiomethyl]-7-(4-amidinophenoxyacetamido)-Δ 3-cephem-4-carboxylic acid] | 0.156 to 0.391 (≈ 0.275 to 0.69 µM) | – | – | Minimum inhibition concentration (MIC) (Streptococcus D): 0.196 to 6.25 µg/mL
14 | CC1(C)S[C@@H]2[C@H](NC(=O)Cc3ccccc3)C(=O)N2[C@H]1C(=O)O [Penicillin-G-Na, reference compound] | – | – | – | MIC [1, 3]: 125 µg/mL (≈ 374 µM)
15 | Cn1nnnc1SCC1=C(C(=O)O)N2C(=O)C(NC(=O)Cc3ccc(C4=NCCCN4)cc3)C2SC1 (stereo not shown) [Example 87, 3-[(1-methyl-1H-tetrazole-5-yl)-thiomethyl]-7-[4-(1,4,5,6-tetrahydropyrimide-2-yl)-phenylacetamido]-Δ 3-cephem-4-carboxylic acid] | 1.6 to 2.5 (≈ 3.03 to 4.73 µM) | – | – | –
16 | COc1cc(C(=N)N)ccc1OCC(=O)NC1C(=O)N2C(C(=O)O)=C(CSc3nccs3)CSC12 (stereo not shown) [Example 129, 3-[(1,3-thiazole-2-yl)thiomethyl]-7-(4-amidino-2-methoxy-phenoxyacetamido)-Δ3-cephem-4-carboxylic acid] | 0.156 to 0.391 (≈ 0.291 to 0.73 µM) | 8 to 15.6 (≈ 0.0149 to 0.0291 µM) | – | –
17 | Cc1nnc(SCC2=C(C(=O)O)N3C(=O)[C@@H](NC(=O)Cn4cnnn4)[C@H]3SC2)s1 [Cephazolin, reference compound] | – | – | 100 (≈ 220 µM) | –
18 | Cc1csc(SCC2=C(C(=O)O)N3C(=O)C(NC(=O)Cc4ccc(NC(=N)N)cc4)C3SC2)n1 (stereo not shown) [Example 7] | 0.5 to 1.25 (≈ 0.964 to 2.41 µM) | – | 10 to 50 (≈ 19.3 to 96.4 µM) | –
19 | CCCCc1nnc(SCC2=C(C(=O)O)N3C(=O)C(NC(=O)COc4ccc(C(=N)N)cc4)C3SC2)o1 (stereo not shown) [Example 66, 3-[(5-n-butyl-1,3,4-oxadiazole-2-yl)-thiomethyl]-7-(4-amidinophenoxyacetamido)-Δ 3-cephem-4-carboxylic acid] | 0.5 to 1.25 (≈ 0.915 to 2.29 µM) | 8 to 15.6 (≈ 0.0146 to 0.0285 µM) | – | –

Second part, led by results:

Row | MIC [1, 2] [µg/mL] | MIC (Streptococcus pyogenes A) [ng/mL] | MIC (Streptococcus D) [µg/mL] | SMILES | also measured
20 | 1.6 to 2.5 (≈ 3.12 to 4.88 µM) | – | – | Cn1ccnc1SCC1=C(C(=O)O)N2C(=O)C(NC(=O)Cc3ccc(C4=NCCN4)cc3)C2SC1 (stereo not shown) [Example 123, 3-[(1-methylimidazole-2-yl)-thiomethyl]-7-[4-(imidazoline-2-yl)-phenylacetamido]-Δ 3-cephem-4-carboxylic acid] | –
21 | 0.156 to 0.391 (≈ 0.293 to 0.734 µM) | 8 to 15.6 (≈ 0.015 to 0.0293 µM) | – | CCCc1nnc(SCC2=C(C(=O)O)N3C(=O)C(NC(=O)COc4ccc(C(=N)N)cc4)C3SC2)o1 (stereo not shown) [Example 40, 3-[(5-n-propyl-1,3,4-oxadiazole-2-yl)-thiomethyl]-7-(4-amidinophenoxyacetamido)-Δ 3-cephem-4-carboxylic acid] | –
22 | 0.5 to 1.25 (≈ 0.946 to 2.36 µM) | 8 to 15.6 (≈ 0.0151 to 0.0295 µM) | – | Cc1nnc(SCC2=C(C(=O)O)N3C(=O)C(NC(=O)Cc4ccc(C5=NCCCN5)cc4)C3SC2)o1 (stereo not shown) [Example 78, 3-[(5-methyl-1,3,4-oxadiazole-2-yl)-thiomethyl]-[4-(1,4,5,6-tetrahydropyrimide-2-yl)-phenylacetamido]-Δ 3-cephem-4-carboxylic acid] | –
23 | 1.6 to 2.5 (≈ 3.03 to 4.74 µM) | – | 10 to 50 (≈ 19 to 94.8 µM) | Cc1n[nH]c(SCC2=C(C(=O)O)N3C(=O)C(NC(=O)Cc4ccc(C5=NCCCN5)cc4)C3SC2)n1 (stereo not shown) [Example 17, 3-[(methyl-1,2,4,-triazole-3-yl)-thiomethyl]-7-[4-(1,4,5,6-tetrahydropyrimide-2-yl)-phenylacetamido]-Δ 3-cephem-4-carboxylic acid] | –
24 | 0.5 to 1.25 (≈ 0.944 to 2.36 µM) | 0.391 to 7.8 (≈ 0.000738 to 0.0147 µM) | 10 to 50 (≈ 18.9 to 94.4 µM) | Cc1csc(SCC2=C(C(=O)O)N3C(=O)C(NC(=O)Cc4ccc(C5=NCCN5)cc4)C3SC2)n1 (stereo not shown) [Example 10, 3-[(4-methyl-thiazole-2-yl)-thiomethyl]-7-[4-(imidazoline-2-yl)-phenylacetamido]-Δ 3-cephem-4-carboxylic acid] | –
25 | 0.5 to 1.25 (≈ 0.898 to 2.25 µM) | 8 to 15.6 (≈ 0.0144 to 0.028 µM) | 10 to 50 (≈ 18 to 89.8 µM) | CCCc1nnc(SCC2=C(C(=O)O)N3C(=O)C(NC(=O)Cc4ccc(C5=NCCCN5)cc4)C3SC2)o1 (stereo not shown) [Example 82, 3-[(5-n-propyl-1,3,4-oxadiazole-2-yl)-thiomethyl]-7-[4-(1,4,5,6-tetrahydropyrimide-2-yl)-phenylacetamido-]-Δ 3-cephem-4-carboxylic acid] | –
26 | – | 0.391 to 7.8 (≈ 0.000662 to 0.0132 µM) | 10 to 50 (≈ 16.9 to 84.6 µM) | O=C(Cc1ccc(C2=NCCCN2)cc1)NC1C(=O)N2C(C(=O)O)=C(CSc3nnc(-c4ccccc4)o3)CSC12 (stereo not shown) [Example 83, 3-[(5-phenyl-1,3,4-oxadiazole-2-yl)-thiomethyl]-7-[4-(1,4,5,6-tetrahydropyrimide-2-yl)-phenylacetamido]-Δ 3-cephem-4-carboxylic acid] | Minimum inhibition concentration (MIC) [1]: 0.5 to 1.25 µg/mL
27 | – | – | 10 to 50 (≈ 18.4 to 91.8 µM) | Cn1nnnc1SCC1=C(C(=O)O)N2C(=O)C(NC(=O)COc3ccc(C4=NCCCN4)cc3)C2SC1 (stereo not shown) [Example 93, 3-[(1-methyl-1-H-tetrazol-5-yl)-thiomethyl]-7-[4-(1,4,5,6-tetrahydropyrimide-2-yl)-phenoxyacetamido-]-Δ3-cephem-4-carboxylic acid] | –
28 | 0.5 to 1.25 (≈ 0.918 to 2.3 µM) | – | 10 to 50 (≈ 18.4 to 91.8 µM) | Cc1nnc(SCC2=C(C(=O)O)N3C(=O)C(NC(=O)COc4ccc(C5=NCCCN5)cc4)C3SC2)o1 (stereo not shown) [Example 76, 3-[(5-methyl-1,3,4-oxadiazole-2-yl)-thiomethyl]-7-[4-(1,4,5,6-tetrahydropyrimide-2-yl)-phenoxy-acetamido]-Δ 3-cephem-4-carboxylic acid] | –
29 | 1.6 to 2.5 (≈ 2.94 to 4.6 µM) | – | 10 to 50 (≈ 18.4 to 92 µM) | Cc1csc(SCC2=C(C(=O)O)N3C(=O)C(NC(=O)Cc4ccc(C5=NCCCN5)cc4)C3SC2)n1 (stereo not shown) [Example 15, 3-[(4-methyl-thiazole-2-yl)-thiomethyl]-7-[4-(1,4,5,6-tetrahydropyrimide-2-yl)-phenylacetamido]-Δ 3-cephem-4-carboxylic acid] | –
30 | 0.5 to 1.25 (≈ 0.942 to 2.36 µM) | 8 to 15.6 (≈ 0.0151 to 0.0294 µM) | – | Cc1nnc(SCC2=C(C(=O)O)N3C(=O)C(NC(=O)COc4ccc(C5=NCCN5)cc4)C3SC2)o1 (stereo not shown) [Example 74, 3-[(5-methyl-1,3,4-oxadiazole-2-yl)-thiomethyl]-7-[4-(imidazoline-2-yl)-phenoxyacetamido]-Δ 3-cephem-4-carboxylic acid] | –
